Assays:
recombinant human UCK2 = target: T1, recombinant human UCK2 (Homo sapiens, UniProt Q9BZX2); assay: In vitro enzyme activity assay with recombinant human UCK2 (PK/LDH-coupled, UV 340 nm); format: biochemical
T1 construct: 6xHis (C); made in house; host or cells: E. coli BL21(DE3)
T1 sequence (Q9BZX2 1-261): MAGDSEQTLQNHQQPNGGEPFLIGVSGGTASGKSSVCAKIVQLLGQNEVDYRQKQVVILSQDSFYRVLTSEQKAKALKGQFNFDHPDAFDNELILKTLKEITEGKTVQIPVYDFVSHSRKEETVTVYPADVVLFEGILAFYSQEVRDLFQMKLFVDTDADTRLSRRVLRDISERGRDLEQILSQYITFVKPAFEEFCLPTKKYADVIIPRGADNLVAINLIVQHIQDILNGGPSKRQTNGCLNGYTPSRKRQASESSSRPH
Source text: In order to guide our SAR studies, we developed an enzymatic assay to evaluate the inhibitory effect of each CPU analog against recombinant human UCK2, which was expressed and purified in E. coli. A continuous assay system was optimized by coupling UCK2 activity to the pyruvate kinase (PK) reaction, which in turn was coupled to lactate dehydrogenase (LDH). Overall reaction progress was continuously monitored by detecting the UV absorption change at 340 nm, which was correlated with the ATP consumption by UCK2. The effect of 250 μM of each CPU analog on UCK2 activity was evaluated in the presence of 50 μM uridine. […] We then individually measured the steady state kinetic parameters of UCK2 using uridine, CPU and 5-F-CPU as substrates. Their KM values were 86, 25, and 41 μM, and their kcat/KM values were 2.6×10^5, 1.5×10^5, and 7.3×10^4 s^−1 M^−1 (FIG. 5B).
Cloning, expression and purification of recombinant human UCK2 and CMPK1: Uridine cytidine kinase 2 (UCK2) was cloned into the pET-21a(+) vector using Ndel and Notl as restriction sites. […] The resulting plasmid was transformed into E. coli BL21(DE3) cells by electroporation, recovered in SOC at 37° C. for 1 h and plated onto LB agar plates with kanamycin overnight at 37° C. A single, isolated colony was inoculated into 30 mL LB supplemented with 50 μg/mL kanamycin and grown at 37° C. with shaking for 15 h. The next day, these cells were used to inoculate 1 L autoclaved LB with 50 μg/mL kanamycin. The flask was shaken at 37° C. When an optical density (OD600) of 0.7 was reached, protein expression was induced with 0.5 mM isopropyl β-D-1-thiogalactopyranoside (IPTG). The temperature was changed to 18° C. and flasks were shaken for an additional 15 h. The cell pellets were collected by spinning the media at 5000 rpm for 10 min. The pellets obtained were frozen by liquid nitrogen and stored in −80° C. for protein purification. Cell pellets were thawed and resuspended in lysis buffer containing Tris (40 mM, pH 7.5), NaCl (10 mM), imidazole (10 mM), DTT (1 mM). Cells were lysed by sonication and centrifuged at 25,000 g for 1 h. The supernatant was incubated with a slurry of Ni-NTA resin for 1 h at 4° C. and loaded onto a column. The nickel column wash buffer was Tris (40 mM, pH 7.5), NaCl (10 mM), DTT (1 mM) and each wash step contained increasing concentrations of imidazole (10, 50, or 250 mM). After SDS-PAGE confirmation of the protein fractions, protein was further purified using fast protein liquid chromatography (FPLC) using buffer A (50 mM Tris-HCl pH 8, 1 mM dithiothreitol (DTT), 10% glycerol) and elution buffer B (50 mM Tris-HCl pH 8, 1mM dithiothreitol (DTT), 10% glycerol with 500 mM NaCl) with changing gradient over a 20 minute from 2% to 100% Buffer B. FPLC eluents containing the protein was concentrated using Am icon centrifugal filter with 3K cut-off and the enzyme was stored in storage buffer (50 mM Tris-HCl pH 7.5, 10% glycerol). Human cytidine monophosphate kinase 1 (CMPK1) was purified as previously described (Deans et al., 2016).
In vitro enzyme activity assays with recombinant human UCK2: To continuously monitor reaction progress spectrophotometrically, ATP hydrolysis was coupled to NADH oxidation via pyruvate kinase (PK) and lactate dehydrogenase (LDH). Reactions were conducted at room temperature in 100 μL in 96-well plates (Greiner Bio-One, UV-Star, Half Area). Mixtures contained 20 mM HEPES (pH 7.2), 100 mM KCl, 2 mM MgCl2, 300 μM ATP, 0-500 μM uridine, 0-500 μM CPU analogs, 10 nM UCK2, 1 mM phosphoenolpyruvate, 500 μM NADH and 20 units/mL of PK and LDH. Progress was monitored in the linear region using a Biotek Synergy HT and kinetic and inhibition constants were determined using GraphPad Prism 7 (GraphPad Software).

[1] = dose of 1 g/kg; cited from earlier work

Q: Which “UCK2 substrate or not (ATP consumption)” value (recombinant human UCK2; 250 μM analog in the presence of 50 μM uridine) does the source give for `O=c1ccn([C@@H]2C=C(CO)[C@@H](O)[C@H]2O)c(=O)[nH]1` [CPU, 1-((1R,4R,5S)-4,5-dihydroxy-3-(hydroxymethyl)cyclopent-2-en-1-yl)pyrimidine-2,4(1H,3H)-dione] here?
A: substrates of UCK2

Q: And the “rate of UMP synthesis” value (recombinant human UCK2; added to assay mixture containing UCK2, uridine (50 μM) and ATP)?
A: dose-dependent decrease

Q: What about the toxicity in mice [1] of the same compound?
A: does not show appreciable toxicity

Reference: patent publication US20220280513A1, “ENHANCING THE ANTIVIRAL EFFICACY OF RNA VIRUS INHIBITION BY COMBINATION WITH MODULATORS OF PYRIMIDINE METABOLISM” (The Board of Trustees of the Leland Stanford Junior …, priority 2019, published 2022)
